Experimental data from patent publication EP4570800A1, “CRYSTAL FORM OF PYRIDINOPYRIMIDINONE COMPOUND, ACID SALT THEREOF, CRYSTAL FORM OF ACID SALT THEREOF, AND USE” (Wuhan Humanwell Innovative Drug Research and Development …, priority 2022, dated 2024).
Like-named read-outs stand apart in the source and are kept apart here.

What was measured:
[1] = tested on: ERK phosphorylation level in DLD-1 cells; assay: Inhibition of ERK phosphorylation level in DLD-1 cells (intracellular western blot); type: cell-based; conditions: Homo sapiens
Description: Intracellular western blot quantitative analysis was used to detect the inhibitory level of compounds on ERK phosphorylation in DLD-1 cells.
DLD-1 cells (ATCC, CCL-221) were seeded in a T75 culture flask at 2.5 × 10^6 cells/flask, and cultured in a RPMI 1640 medium containing 10% FBS for 2 days. On day 3, the cells were seeded on a 384-well plate, and cultured overnight at 37°C, 5% CO2. After overnight culture, the plate was added with serially diluted compounds (the final content of DMSO was 0.5%), the negative group was added with DMSO, and incubated in a 37°C, 5% CO2 incubator.
The cells were fixed, washed once with PBS, treated to disrupt membranes, and blocked at room temperature for 1 h. The blocking solution was removed. The plate was added with primary antibody (CST, Cat. No. #4370S), and incubated overnight at 4°C. The plate was washed 3 times with PBST (PBS solution added with 0.05% Tween-20), and soaked for 2 min each time. The plate was added with secondary antibody (LI-COR, Cat. No. 926-32211), and incubated at room temperature in the dark. The plate was washed 3 times with PBST, and soaked for 2 min each time. The plate was centrifuged at 1000 rpm for 1 min, scanned on a two-color infrared laser imaging system (Odyssey® CLX) to read the signal. Relative signal = 800-channel signal values/700-channel signal values. […]
IC50 values were calculated using Graphpad 5 software.

[2] = Human liver microsome stability test; type: in vitro ADME; conditions: human liver microsomes
Description: The human liver microsome stability test was performed by incubating the compound and human liver microsomes in vitro. First, the compound to be tested was prepared into a 10 mM stock solution in DMSO solvent, and then the compound was diluted to 0.5 mM with acetonitrile. Human liver microsomes (Corning) were diluted with PBS into a microsome/buffer solution, and the solution was used to dilute 0.5 mM compound into a working solution, in which the concentration of the compound was 1.5 µM, and the concentration of human liver microsomes was 0.75 mg/mL. A deep-well plate was taken, 30 µL of the working solution was added per well, and then 15 µL of pre-heated 6 mM NADPH solution was added thereto to initiate a reaction, and the reaction was incubated at 37°C. At 0, 5, 15, 30, and 45 min of the incubation, 135 µL of acetonitrile was added to the corresponding wells to terminate the reaction. After the reaction was terminated with acetonitrile at the last time point of 45 min, the deep-well plate was vortexed for 10 min (600 rpm/min), and then centrifuged for 15 min. After centrifugation, the supernatant was collected, and added with purified water in a ratio of 1:1 to perform LC-MS/MS detection. A ratio of a peak area of compound to a peak area of internal standard at each time point was obtained, and the peak area ratios of the compound at 5, 15, 30, and 45 min were compared with the peak area ratio at 0 min to calculate the remaining percentage of the compound at each time point. T1/2 was calculated by using GraphPad 5 software.

CYP3A4 = biological target: T1, CYP3A4 (Homo sapiens, UniProt P08684); assay: Cytochrome P450 inhibition test (CYP3A4, substrates midazolam and testosterone); type: in vitro ADME; conditions: compound 10 µM, human liver microsomes
T1 construct: A human liver microsome solution at a concentration of 0.2 mg/mL was prepared; from tissue; host or cells: human liver microsomes
Description: The inhibitory potential of compounds on cytochrome P450 (CYP450) subtype CYP3A4 (two substrates of midazolam and testosterone) was detected. First, the compound to be tested was prepared into a 10 mM stock solution in DMSO solvent, and the CYP3A4 inhibitor ketoconazole was prepared as 10 mM, 2.5 mM, and 2.5 mM stock solutions in DMSO solvent. The test compound and ketoconazole were diluted to 400-fold final concentration (compound: 10 µM, ketoconazole: 2.5 µM) with acetonitrile.
NADPH cofactor (10 mL of potassium phosphate buffer added with 66.7 mg NADPH) at 4-fold final concentration and substrates were prepared with potassium phosphate buffer (0.1 M, pH = 7.4), with CYP3A4 substrate midazolam at a final concentration of 320 µM and CYP3A4 substrate testosterone at a final concentration of 20 µM.
A human liver microsome solution at a concentration of 0.2 mg/mL was prepared with potassium phosphate buffer on ice. A solution of the compound to be tested and a control inhibitor (control compound) solution at 2-fold final concentration were prepared with the human liver microsome solution on ice. The test wells were added with 30 mL of the test compound solution and the control inhibitor solution respectively, and then added with 15 mL of the substrate for duplication. […]

[3] = Mouse pharmacokinetic test (oral gavage); type: in vivo; conditions: plasma, male ICR mice, oral administration by gavage, 10 mg/kg
Description: Male ICR mice (20 to 25 g) were used, and fasted overnight. Three mice were taken and orally administered by gavage (10 mg/kg). Blood was collected before the administration, and at 15 min, 30 min, 1 h, 2 h, 4 h, 8 h, and 24 h after the administration. 6,800 g of the blood samples were centrifuged at 2 to 8°C for 6 min, and plasma was collected and stored at -80°C. The plasma at each time point was taken and added with an acetonitrile solution containing internal standard in 3 to 5 times the amount, vortexed and mixed for 1 min, and centrifuged at 13,000 rpm/min at 4°C for 10 min. The supernatant was collected, added with water in 3 times the amount, and mixed. An appropriate amount of the mixture was taken for LC-MS/MS analysis. The main pharmacokinetic parameters were analyzed using WinNonlin 7.0 software with non-compartmental model.

[4] = tested on: Mia Paca-2 pancreatic cancer; assay: In vivo efficacy test on Mia Paca-2 pancreatic cancer; design: species or system mice; conditions: for Average tumor weight at the end of the treatment / Tumor weight inhibition rate (relative to the vehicle group): BID
Description: (§1) After one week of adaptive feeding of mice, Mia Paca-2 cells in a logarithmic phase were resuspended in serum-free DMEM, and then mixed with Matrigel in a ratio of 1: 1. 1 × 10^7 Mia Paca-2 cells were inoculated subcutaneously at the right flank at 100 µL per mouse, and tumor growth was observed regularly. When the tumor grew to an average volume of 150 to 200 mm^3, the mice were randomly divided into a model group and an administration group (single drug, in combination with trametinib) based on the tumor size and body weight. The tumor size and body weight were measured and recorded before and during the administration. After the treatment, the tumor size in the model group was compared with that in the administration group to determine the efficacy.

LOVO colorectal cancer = assay: In vivo efficacy test on LOVO colorectal cancer; design: species or system mice; conditions: 50 mg/kg, BID
Description: as §1, with “LOVO” for “Mia Paca-2”, “F12K, 5” for “DMEM, and then mixed with Matrigel in a ratio of 1: 1. 1”, “10^6 LOVO” for “10^7 Mia Paca-2”, “group” for “group (single drug, in combination with trametinib)”

T1 sequence (P08684 whole entry): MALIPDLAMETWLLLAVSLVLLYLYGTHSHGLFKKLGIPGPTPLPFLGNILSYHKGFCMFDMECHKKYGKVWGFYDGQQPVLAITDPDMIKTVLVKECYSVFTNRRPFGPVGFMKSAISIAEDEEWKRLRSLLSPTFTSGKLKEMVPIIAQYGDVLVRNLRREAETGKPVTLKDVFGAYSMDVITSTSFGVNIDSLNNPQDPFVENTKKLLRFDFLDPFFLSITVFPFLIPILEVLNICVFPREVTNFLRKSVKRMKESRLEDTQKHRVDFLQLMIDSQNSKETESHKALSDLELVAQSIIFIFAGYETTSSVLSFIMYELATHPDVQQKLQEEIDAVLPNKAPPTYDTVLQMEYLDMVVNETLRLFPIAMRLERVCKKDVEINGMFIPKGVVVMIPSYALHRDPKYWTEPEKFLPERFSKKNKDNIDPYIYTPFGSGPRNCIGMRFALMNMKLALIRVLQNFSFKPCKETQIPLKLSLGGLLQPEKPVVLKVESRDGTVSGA

In the case of `Cc1nc(N[C@H](C)c2cccc(S(F)(F)(F)(F)F)c2)c2cn(C3(CF)CC3)c(=O)cc2n1` [Compound of formula I, (R)-6-(1-(fluoromethyl)cyclopropyl)-2-methyl-4-((1-(3-(pentafluorosulfanyl)phenyl)ethyl)amino)pyrido[4,3-d]pyrimidin-7(6H)-one], the IC50 [1] is reported as 0.056 µM, the half-life at 1 µM [2] is reported as 12.8 h and the “Remaining percentage (%) of compound after incubation for 30 min” value ([2]; incubation for 30 min, 37°C) is reported as 98.7%. The inhibition at 5 min, 10 µM (CYP3A4; pH 7.4, probe midazolam, substrate midazolam, read-out: CYP inhibition rate (%) CYP3A4 (midazolam)) was 0%, the inhibition at 5 min, 10 µM (CYP3A4; pH 7.4, probe testosterone, substrate testosterone, read-out: CYP inhibition rate (%) CYP3A4 (testosterone)) was 0% and the AUC(0-t) [3] was 3.08 µg·h/mL. The Cmax [3] was 1.44 µg/mL, the Tmax [3] was 1 h and the half-life [3] was 0.97 h. The “Average tumor weight at the end of the treatment” value ([4]; Mia Paca-2, 25 mg/kg) was 0.35 g, the “Tumor weight inhibition rate (relative to the vehicle group)” value ([4]; Mia Paca-2, 25 mg/kg) was 70% and the “Average tumor weight at the end of the treatment” value ([4]; Mia Paca-2, 50 mg/kg) was 0.27 g. For the same compound, the “Tumor weight inhibition rate (relative to the vehicle group)” value ([4]; Mia Paca-2, 50 mg/kg) was 76%, the “inhibitory effect on Mia Paca-2 tumor growth” value ([4]; alone (single drug)) was “significant inhibitory effect” and the “efficacy of combined use compared with single use” value ([4]; combination with trametinib vs single use, Mia Paca-2) was “more effective than the single use”. For the same compound, the “inhibitory effect on Mia Paca-2 tumor growth” value ([4]; in combination with trametinib) was “significant inhibitory effect”, the “At the end of treatment Average tumor weight” value (LOVO colorectal cancer) was 0.75 g and the “Tumor weight inhibition rate (relative to the vehicle group)” value (LOVO colorectal cancer) was 46%.
